# Data from patent US9777005B2 (Takeda Pharmaceutical Company Limited, priority 2012, dated 2017).
# Where a name gives a salt, the structure may show the parent alone.
# Target: T1, human M1 receptor (hCHRM1) (Homo sapiens, UniProt P11229)
# T1 construct: expressed in transfected cells; host or cells: CHO-K1
# T1 sequence (P11229 1-460): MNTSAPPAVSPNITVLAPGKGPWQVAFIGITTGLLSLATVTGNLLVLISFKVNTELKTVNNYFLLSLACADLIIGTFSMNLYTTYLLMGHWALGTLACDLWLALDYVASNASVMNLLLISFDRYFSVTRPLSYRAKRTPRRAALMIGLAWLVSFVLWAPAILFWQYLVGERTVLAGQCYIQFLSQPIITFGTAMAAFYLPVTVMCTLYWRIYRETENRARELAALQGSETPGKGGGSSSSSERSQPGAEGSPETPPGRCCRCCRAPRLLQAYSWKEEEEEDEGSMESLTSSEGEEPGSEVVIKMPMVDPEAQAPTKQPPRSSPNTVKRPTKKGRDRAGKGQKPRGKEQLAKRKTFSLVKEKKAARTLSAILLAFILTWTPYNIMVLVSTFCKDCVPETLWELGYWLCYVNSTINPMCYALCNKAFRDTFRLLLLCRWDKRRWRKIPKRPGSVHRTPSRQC
# Assay: Measurement of M1 receptor positive allosteric modulator (M1PAM) activity, calcium fluorescence (FLIPRtetra) in CHO-K1 cells in the presence of acetylcholine at EC20
# Assay type: cell-based
# Conditions: in the presence of acetylcholine at EC20 (final 0.6 nM), CHO-K1 cells expressing hCHRM1; for EC50: inflection point of M1PAM activity, read-out: IP value; for activity (%) at 10 μM: test compound 10 μM
# Method: Measurement of M1 Receptor Positive Allosteric Modulator (M1PAM) Activity
# The activity of a test compound in the presence of acetylcholine at EC20 concentration (final concentration 0.6 nM), which affords an action corresponding to 20% of the maximum activity, was measured as PAM activity. The method is as follows. CHO-K1 cells forcibly expressing a human M1 receptor (hCHRM1) were plated on a 384-well black clear bottom plate (BD Falcon) at 5,000 cells/well, and cultured in an incubator at 37° C., 5% CO2 for 1 day. The medium in the cell plate was removed, and assay buffer A (Recording medium (DOJINDO LABORATORIES), 0.1% BSA (Wako Pure Chemical Industries, Ltd.), 2.5 μg/mL Fluo-4 AM (DOJINDO LABORATORIES), 0.08% Pluronic F127 (DOJINDO LABORATORIES), 1.25 mM probenecid (DOJINDO LABORATORIES)) containing a calcium indicator was added at 30 μL/well. The cells were left standing in the incubator at 37° C., 5% CO2 for 30 min, and further left standing at room temperature for 30 min. A test compound prepared by diluting with assay buffer B (HBSS (Invitrogen), 20 mM HEPES (Invitrogen), 0.1% BSA) containing 2.4 nM acetylcholine was added at 10 μL/well, and the fluorescence was measured by FLIPRtetra (Molecular Devices) for 1 min every 1 second. With the definition that the amount of change in the fluorescence on addition of acetylcholine (final concentration 1 μM) is 100% and that on addition of DMSO instead of a test compound is 0%, the activity (%) of the test compound and the inflection point in the concentration-dependent curve of the test compound were calculated as IP values.
EC50,activity (%) at 10 μM,activity (%) at 10 μM (hydrochloride),SMILES
74 nM,89%,–,"Cc1cc(-c2ccc(CN3Cc4ccnc(Oc5ccc(C(F)(F)F)cc5C)c4C3=O)cc2)cnn1 [Example 407, 2-(4-(6-methylpyridazin-4-yl)benzyl)-4-(2-methyl-4-(trifluoromethyl)phenoxy)-1,2-dihydro-3H-pyrrolo[3,4-c]pyridin-3-one]"
40 nM,97%,–,"Cn1cc(-c2ccc(CN3Cc4ccnc(Oc5cc(CC#N)ccc5F)c4C3=O)cc2)cn1 [Example 406, (4-fluoro-3-((2-(4-(1-methyl-1H-pyrazol-4-yl)benzyl)-3-oxo-2,3-dihydro-1H-pyrrolo[3,4-c]pyridin-4-yl)oxy)phenyl)acetonitrile]"
93 nM,96%,–,"Cc1cc(F)cc(F)c1Oc1nccc2c1C(=O)N(Cc1ccc(-c3ccn(C)n3)cc1)C2 [Example 359, 4-(2,4-difluoro-6-methylphenoxy)-2-(4-(1-methyl-1H-pyrazol-3-yl)benzyl)-1,2-dihydro-3H-pyrrolo[3,4-c]pyridin-3-one]"
19 nM,99%,–,"Cc1cc(-c2ccc(CN3Cc4ccnc(Oc5ccc(C(C)(C)F)cc5F)c4C3=O)cc2)cnn1 [Example 410, 4-(2-fluoro-4-(2-fluoropropan-2-yl)phenoxy)-2-(4-(6-methylpyridazin-4-yl)benzyl)-1,2-dihydro-3H-pyrrolo[3,4-c]pyridin-3-one]"
61 nM,102%,–,"C=C(C)c1ccc(Oc2nccc3c2C(=O)N(Cc2ccc(-c4cnnc(C)c4)cc2)C3)c(F)c1 [Example 411, 4-(2-fluoro-4-(prop-1-en-2-yl)phenoxy)-2-(4-(6-methylpyridazin-4-yl)benzyl)-1,2-dihydro-3H-pyrrolo[3,4-c]pyridin-3-one]"
16 nM,105%,–,"Cc1cc(-c2ccc(CN3Cc4ccnc(Oc5ccc(C(F)F)cc5F)c4C3=O)cc2)cnn1 [Example 392, 4-(4-(difluoromethyl)-2-fluorophenoxy)-2-(4-(6-methylpyridazin-4-yl)benzyl)-1,2-dihydro-3H-pyrrolo[3,4-c]pyridin-3-one]"
17 nM,110%,–,"CCc1cc(F)c(Oc2nccc3c2C(=O)N(Cc2ccc(-c4ccn(C)n4)cc2)C3)c(F)c1 [Example 430, 4-(4-ethyl-2,6-difluorophenoxy)-2-(4-(1-methyl-1H-pyrazol-3-yl)benzyl)-1,2-dihydro-3H-pyrrolo[3,4-c]pyridin-3-one]"
25 nM,95%,–,"Cn1cc(-c2ccc(CN3Cc4ccnc(Oc5c(F)cccc5Cl)c4C3=O)cc2)cn1 [Example 397, 4-(2-chloro-6-fluorophenoxy)-2-(4-(1-methyl-1H-pyrazol-4-yl)benzyl)-1,2-dihydro-3H-pyrrolo[3,4-c]pyridin-3-one]"
17 nM,106%,–,"Cn1cc(-c2ccc(CN3Cc4ccnc(OCc5ccccc5F)c4C3=O)cc2)nn1 [Example 332, 4-((2-fluorobenzyl)oxy)-2-(4-(1-methyl-1H-1,2,3-triazol-4-yl)benzyl)-1,2-dihydro-3H-pyrrolo[3,4-c]pyridin-3-one]"

# Second part, the compound before the results:
SMILES,EC50,activity (%) at 10 μM,activity (%) at 10 μM (hydrochloride)
"Cn1cc(-c2ccc(CN3Cc4ccnc(OCC5CC5)c4C3=O)c(F)c2)nn1 [Example 331, 4-(cyclopropylmethoxy)-2-(2-fluoro-4-(1-methyl-TH-1,2,3-triazol-4-yl)benzyl)-1,2-dihydro-3H-pyrrolo[3,4-c]pyridin-3-one]",16 nM,104%,–
"Cn1cc(-c2ccc(CN3Cc4ccnc(OCC5CCC5)c4C3=O)c(F)c2)nn1 [Example 263, 4-(cyclobutylmethoxy)-2-(2-fluoro-4-(1-methyl-1H-1,2,3-triazol-4-yl)benzyl)-1,2-dihydro-3H-pyrrolo[3,4-c]pyridin-3-one]",41 nM,106%,–
"Cn1ccc(-c2ccc(CN3Cc4cccc(O[C@@H]5CCOC[C@H]5O)c4C3=O)cc2)n1 [Example 272, 1,5-anhydro-2-deoxy-3-O-(2-(4-(1-methyl-1H-pyrazol-3-yl)benzyl)-3-oxo-2,3-dihydro-1H-isoindol-4-yl)-threo-pentitol]",6.5 nM,107%,–
"Cn1ccc(-c2ccc(CN3Cc4cccc(O[C@@H]5COCC[C@H]5O)c4C3=O)cc2)n1 [Example 273, 1,5-anhydro-2-deoxy-4-O-(2-(4-(1-methyl-1H-pyrazol-3-yl)benzyl)-3-oxo-2,3-dihydro-1H-isoindol-4-yl)-threo-pentitol]",8.5 nM,103%,–
"O=C1c2c(cccc2O[C@@H]2COCC[C@H]2O)CN1Cc1ccc(F)cc1F (single isomer, unassigned) [Example 301, 1,5-anhydro-2-deoxy-4-O-(2-(2,4-difluorobenzyl)-3-oxo-2,3-dihydro-1H-isoindol-4-yl)-threo-pentitol]",120 nM,89%,–
"Cn1cc(-c2ccc(CN3Cc4cccc(Oc5c(F)cccc5C#N)c4C3=O)cc2)cn1 [Example 6, 3-fluoro-2-((2-(4-(1-methyl-1H-pyrazol-4-yl)benzyl)-3-oxo-2,3-dihydro-1H-isoindol-4-yl)oxy)benzonitrile]",31 nM,90%,–
"Cc1cc(-c2cnc(CN3Cc4cccc(Oc5c(F)cccc5F)c4C3=O)c(F)c2)ccn1 [Example 264, 7-(2,6-difluorophenoxy)-2-((5-fluoro-2′-methyl-3,4′-bipyridin-6-yl)methyl)isoindolin-1-one]",140 nM,92%,–
"Cn1cc(-c2ccc(CN3Cc4ccnc(Oc5cc(C#N)ccc5F)c4C3=O)cc2)cn1 [Example 297, 4-fluoro-3-((2-(4-(1-methyl-1H-pyrazol-4-yl)benzyl)-3-oxo-2,3-dihydro-1H-pyrrolo[3,4-c]pyridin-4-yl)oxy)benzonitrile]",16 nM,96%,–
"Cn1cc(-c2ccc(CN3Cc4ccnc(OCCC5CC5)c4C3=O)c(F)c2)nn1 [Example 260, 4-(2-cyclopropylethoxy)-2-(2-fluoro-4-(1-methyl-1H-1,2,3-triazol-4-yl)benzyl)-1,2-dihydro-3H-pyrrolo[3,4-c]pyridin-3-one]",45 nM,109%,–
"Cn1cc(-c2ccc(CN3Cc4cccc(OCCO)c4C3=O)cc2)cn1 [Example 17, 7-(2-hydroxyethoxy)-2-(4-(1-methyl-1H-pyrazol-4-yl)benzyl)isoindolin-1-one]",120 nM,118%,–
"O=C1c2c(ccnc2OCC2CCCO2)CN1Cc1ccc(-c2cnn3ccccc23)cc1 (stereo not shown) [Example 289, 2-(4-(pyrazolo[1,5-a]pyridin-3-yl)benzyl)-4-((tetrahydrofuran-2-yl)methoxy)-1,2-dihydro-3H-pyrrolo[3,4-c]pyridin-3-one]",4.7 nM,89%,–
"Cc1cc(-c2ccc(CN3Cc4ccnc(O[C@@H]5CCC[C@H]5O)c4C3=O)cc2)ccn1 (single isomer, unassigned) [Example 258, 4-((trans-2-hydroxycyclopentyl)oxy)-2-(4-(2-methylpyridin-4-yl)benzyl)-1,2-dihydro-3H-pyrrolo[3,4-c]pyridin-3-one hydrochloride]",5.7 nM,–,107%
"O=C1c2c(cccc2O[C@H]2CCCC[C@@H]2O)CN1Cc1ccc(-c2cn[nH]c2)cc1 (relative stereo) [Example 26, 7-((trans-2-hydroxycyclohexyl)oxy)-2-(4-(1H-pyrazol-4-yl)benzyl)isoindolin-1-one]",4.1 nM,96%,–
"Cc1cc(-c2ccc(CN3Cc4cccc(O[C@H]5CCC[C@@H]5O)c4C3=O)cc2)ccn1 (relative stereo) [Example 224, 7-((trans-2-hydroxycyclopentyl)oxy)-2-(4-(2-methylpyridin-4-yl)benzyl)isoindolin-1-one]",38 nM,107%,–
